# Assay results reported in US6958335B2, “Treatment of gastrointestinal stromal tumors” (Novartis AG, priority 2000, dated 2005).
# Like-named read-outs stand apart in the source and are kept apart here.
# What was measured:
# [1] = tested on: unresectable metastatic GIST; conditions: for total tumour size (tumour area of 8 large measurable liver metastases, MRI): 112.5 cm^2 before treatment
# Method: Seven cycles of IADIC (ifosfamide, doxoribicin, and dacarbazine) were given from November 1998 to March 1999 for multiple liver metastases. […] They were subsequently treated between April 1999 and February 2000 with an experimental regimen consisting of thalidomide 400 mg once daily and interferon alpha 0.9 MU T.I.D. s.c. to control persisting liver disease.
# (§1) Treatment toxicity was assessed at follow-up visits performed at 2 to 4 week intervals, and blood cell counts and blood chemistry were analysed at 1 to 2 week intervals. Treatment response was assessed with dynamic MRI scans, ^18F-fluorodeoxyglucose (FDG) positron emission tomography (PET) examinations, and cutting needle biopsies from a liver metastasis. Dynamic MRI was performed with a 1.5T Magnetom Vision (Siemens, Erlangen, Germany). Fat-suppressed T1-weighted breathhold gradient echo transaxial images were obtained both before and after intravenous contrast medium injection (0.1 mmol/kg gadolinium-DOTA; Dotarem, Guerbet, France). The enhancement pattern was established using sequential imaging over 5 minutes, and delayed scanning was performed after 10 minutes. FDG PET was done using an 8-ring ECAT 931/08 device (Siemens-CTI Corp. Knoxville, Tenn.). The FDG dose given varied between 355 to 375 MBq.
# GIST = tested on: GIST
# From the text: At the priority date of the present patent application a clinical study with more GIST patients was being conducted analogously to the study described in Example 1.
# [2] = during therapy
# Method: as §1, with “minutes.” for “minutes. FDG PET was done using an 8-ring ECAT 931/08 device (Siemens-CTI Corp. Knoxville, Tenn.). The FDG dose given varied between 355 to 375 MBq.”
# [3] = tested on: unresectable and/or metastatic malignant gastrointestinal stromal tumors (GIST)
# Method: A phase 2, open-label, randomized multinational study was conducted in patients with unresectable and/or metastatic malignant gastrointestinal stromal tumors (GIST). […] The primary evidence of efficacy was based on objective response rates, and the time to response, duration of response, time to treatment failure and survival were also evaluated. Tumors were required to be measurable in at least one site of disease, and response characterization based on Southwestern Oncology Group (SWOG) criteria.
# [4] = among the 61 patients with stable disease
structure (smiles),measurement,setting,value
CS(=O)(=O)O.Cc1ccc(NC(=O)c2ccc(CN3CCN(C)CC3)cc2)cc1Nc1nccc(-c2cccnc2)n1 [SALT I],metabolic response in tumour (PET imaging),"[1]; 400 mg daily orally, within 1 month",complete metabolic response
same,decrease of total tumour size (MRI),[1]; 1 month,52%
same,"total tumour size (tumour area of 8 large measurable liver metastases, MRI)",[1]; 1 month,54.3 cm^2
same,decrease of total tumour size (MRI),[1]; 2 months,63%
same,"total tumour size (tumour area of 8 large measurable liver metastases, MRI)",[1]; 2 months,41.5 cm^2
same,decrease of total tumour size (MRI),[1]; 2 weeks after starting,41%
same,"total tumour size (tumour area of 8 large measurable liver metastases, MRI)",[1]; 2 weeks after starting,66.9 cm^2
same,decrease of total tumour size (MRI),[1]; 4 months,68%
same,"total tumour size (tumour area of 8 large measurable liver metastases, MRI)",[1]; 4 months,36.2 cm^2
same,decrease of total tumour size (MRI),[1]; 5.5 months,71%
same,"total tumour size (tumour area of 8 large measurable liver metastases, MRI)",[1]; 5.5 months,32.5 cm^2
same,FDG uptake in PET,[1]; PET 1 month after starting,no abnormal FDG uptake was present in the liver
same,FDG uptake in PET at the sites of liver metastases,[1]; PET 2 months after starting,less FGD uptake than the surrounding liver parenchyma
same,World Health Organization (WHO) performance status,"[1]; during therapy, improved from 1 before",0
same,new lesions,[1]; follow-up MRI on treatment,No new lesions appeared
same,liver metastases that disappeared,"[1]; of the 28 liver metastases, follow-up MRI on treatment",6
same,pattern of contrast enhancement of tumour by dynamic MRI,[1]; within 2 weeks after starting,decreased dramatically
same,reduction in patients with partial response,GIST; 8 patients,50-66%
same,reduction in patients with stable disease,GIST; 18 patients,4-42%
same,patients with partial response,GIST; of 27 evaluated patients,8 patients
same,patients with stable disease,GIST; of 27 evaluated patients,18 patients
same,patients with progression of the disease,"GIST; of 27 evaluated patients, study not finished",1 patient
same,"drug-related liver, renal or cardiac toxicity",[2],"No drug-related liver, renal or cardiac toxicity was observed"
same,Best response: Complete response,[3]; 400 mg (N = 73),0 n (%)
same,Best response: Not evaluable,[3]; 400 mg (N = 73),3 (4.1) n (%)
same,Best response: Partial response,[3]; 400 mg (N = 73),27 (37.0) n (%)
same,Best response: Progressive disease,[3]; 400 mg (N = 73),10 (13.7) n (%)
same,Best response: Stable disease,[3]; 400 mg (N = 73),33 (45.2) n (%)
same,Best response: Unknown,[3]; 400 mg (N = 73),0 n (%)
same,differences between dose groups in efficacy parameters,[3]; 400 mg vs 600 mg,could not be observed
same,Best response: Complete response,[3]; 600 mg (N = 74),0 n (%)
same,Best response: Not evaluable,[3]; 600 mg (N = 74),4 (5.4) n (%)
same,Best response: Partial response,[3]; 600 mg (N = 74),32 (43.2) n (%)
same,Best response: Progressive disease,[3]; 600 mg (N = 74),8 (10.8) n (%)
same,Best response: Stable disease,[3]; 600 mg (N = 74),28 (37.8) n (%)
same,Best response: Unknown,[3]; 600 mg (N = 74),2 (2.7) n (%)
same,Best response: Complete response,[3]; All doses (N = 147),0 n (%)
same,Best response: Not evaluable,[3]; All doses (N = 147),7 (4.8) n (%)
same,Best response: Partial response,[3]; All doses (N = 147),59 (40.1) n (%)
same,Best response: Stable disease,[3]; All doses (N = 147),61 (41.5) n (%)
same,Best response: Unknown,[3]; All doses (N = 147),2 (1.4) n (%)
same,patients with reduction in tumor size by more than 25% on at least one assessment,[3]; all 147 patients,118 patients
same,share of patients with reduction in tumor size by more than 25% on at least one assessment,[3]; all 147 patients,80%
same,patients with partial response not yet confirmed by a second assessment,[3]; [4],28 patients
same,patients with reduction in tumor size by more than 25%,[3]; [4],19 patients
same,patients with significant tumor shrinkage among stable disease,[3]; [4],47 patients
same,estimate of patients free from treatment failure,"[3]; at 12 weeks, interval censoring",80%
same,estimate of patients free from treatment failure,"[3]; at 12 weeks, without interval-censoring",81%
same,estimate of patients free from treatment failure,"[3]; at 24 weeks, interval censoring",66%
same,estimate of patients free from treatment failure,"[3]; at 24 weeks, without interval-censoring",67%
same,median time to the onset of response,[3]; entire study population,12 weeks
same,relapse among patients with confirmed response,[3]; interim analysis,No patients with confirmed response had relapsed
same,median duration of response,"[3]; interim analysis, no interval censoring",approximately 14 weeks
same,median time to treatment failure,"[3]; interval censoring, pooled population, based on only two patients, not reliable",54 weeks
